Measured values taken from patent US10016382B2, “Method for decreasing skeletal muscle damage and/or oxidative stress in mammals” (LONZA INC., priority 2014, dated 2018).
“And” between values parts separate entries of the source, which are not always exact repeats. Equal entries are not always repeated.

Columns and labels:
[1] = system: Labrador Retrievers; assay: Activity by Actical monitors, short (sprint) runs, Example 1; format: in vivo, dog; settings: Ex.1, 250 mg/d; for Activity short runs, Least Sq Mean: average of weekly short runs over 13 wk, mixed model
Description: Each test dog wore an Actical activity monitor from Philips Respironics on a collar for the short higher intensity runs and also wore an Actical activity monitor for the weekly longer endurance runs. The activity data was downloaded into spread sheets along with each dogs identity. Twenty four hours after each long run during the 13 wk running program each of the dogs were scored by kennel staff for soreness or any type of lameness The exercise program was decreased in a tapering program during wk 11 and 12 to allow the dogs to rest for the final long run completed on wk 13. Pre-run serum samples from each test dog was taken 24 hr before the last endurance run. The heart rate and basal body temperature was determined for each test dog prior to the last long endurance run. Exercise Regimen: Each group of dogs were put through two different types of exercise programs on a weekly basis. The exercise regimen consisted of both sprint (short runs) and endurance (long runs) type work during the 90 day period. Each group of dogs were put through a simulated amount of work that would be equal to competing in an AKC Junior Hunt Test (American […] Club) and also once a week the dogs were put through a simulated endurance run. Each group of test dogs ran the AKC Hunt Test workout 26 times during the 13 wk study which was 2 times per week. During each week, each group ran the test 2 times with 1 day rest between runs. The AKC Hunt Test workout during the initial week amounted to two days of 6 consecutive sprint type retrieves for a minimum of 100 yd each way making a total of 1200 yd per day or 2400 yd per wk. The dogs brought back a bumper (equivalent to a duck or mark) to the handler during the exercise. […] The length of time involved in the intense exercise simulating the AKC Hunt Test was approximately 10 to 15 minutes per dog each of the short run days and was equal for both treatments. The rest time between retrieves (sprints) in a set during the simulated weekly AKC Hunt Test was equal for all dogs. Performance and Recovery Time: An Actical monitor (Philips Respironics) was worn around the neck of each dog on a collar and utilized to evaluate the amount of movement (measured total movements and intensity) for each dog for the purpose of evaluating equal work between treatments and also to evaluate the individual work intensity while completing the daily retrieves. Each dog wore the Actical monitor for each long run and wore the Actical monitor for the final 15 mile run. The Actical monitor data was downloaded to a computer for evaluation. Statistical Methods: GraphPad Prism 6.0 was used to compare means between groups for run time, food intake, body weight, and changes in blood chemistry using an unpaired t-test. Results were considered significant if a p-value of 0.05 was obtained. JMP 10.0.2 was used to create a mixed model for long runs, short runs, body composition, and blood chemistry.

[2] = system: Labrador Retrievers; assay: Subjective recovery score (soreness, lameness) after long runs, Example 1; format: in vivo, dog; settings: Ex.1, 250 mg/d; observed 24 hr following each long run; either treatment
Description: Each test dog wore an Actical activity monitor from Philips Respironics on a collar for the short higher intensity runs and also wore an Actical activity monitor for the weekly longer endurance runs. The activity data was downloaded into spread sheets along with each dogs identity. Twenty four hours after each long run during the 13 wk running program each of the dogs were scored by kennel staff for soreness or any type of lameness The exercise program was decreased in a tapering program during wk 11 and 12 to allow the dogs to rest for the final long run completed on wk 13. Pre-run serum samples from each test dog was taken 24 hr before the last endurance run. The heart rate and basal body temperature was determined for each test dog prior to the last long endurance run. A subjective recovery score was determined 24 hours after endurance run for each test dog once per week. The subjective recovery score (1-5; score of 1 for no soreness or stiffness in limbs and a score of 5 meant major soreness and stiffness) was based on ease of movement and soreness of each dog. The same subjective system was used 6 hr after the long 15 mile run and again at 24 and 48 hr to evaluate the recovery of the dogs as far as soreness and desire to move.

**Q.** Which “Activity short runs, APM/lb Mean” value ([1]; Week 3, both sexes) does the source give for `C[N+](C)(C)C[C@H](O)CC(=O)[O-]` [L-carnitine] here?
**A.** 1479 Movements/Mile/LB BW

**Q.** And the “Activity short runs, APM/lb Mean” value ([1]; Week 3, females)?
**A.** 1636 Movements/Mile/LB BW

**Q.** And the “Activity short runs, APM/lb Mean” value ([1]; Week 3, males)?
**A.** 1338 Movements/Mile/LB BW

**Q.** And the “Activity short runs, APM/lb Mean” value ([1]; Week 4, both sexes)?
**A.** 1402 Movements/Mile/LB BW

**Q.** What about the “Activity short runs, APM/lb Mean” value ([1]; Week 4, females) of the same compound?
**A.** 1608 Movements/Mile/LB BW

**Q.** And the “Activity short runs, APM/lb Mean” value ([1]; Week 4, males)?
**A.** 1234 Movements/Mile/LB BW

**Q.** What about the “Activity short runs, APM/lb Mean” value ([1]; Week 5, both sexes) of the same compound?
**A.** 1314 Movements/Mile/LB BW

**Q.** What about the “Activity short runs, APM/lb Mean” value ([1]; Week 5, females) of the same compound?
**A.** 1362 Movements/Mile/LB BW

**Q.** And the “Activity short runs, APM/lb Mean” value ([1]; Week 5, males)?
**A.** 1275 Movements/Mile/LB BW

**Q.** What about the “Activity short runs, APM/lb Mean” value ([1]; Week 6, both sexes) of the same compound?
**A.** 1375 Movements/Mile/LB BW

**Q.** And the “Activity short runs, APM/lb Mean” value ([1]; Week 6, females)?
**A.** 1340 Movements/Mile/LB BW

**Q.** What about the “Activity short runs, APM/lb Mean” value ([1]; Week 6, males) of the same compound?
**A.** 1403 Movements/Mile/LB BW

**Q.** And the “Activity short runs, APM/lb Mean” value ([1]; Week 7, both sexes)?
**A.** 1380 Movements/Mile/LB BW

**Q.** What about the “Activity short runs, APM/lb Mean” value ([1]; Week 7, females) of the same compound?
**A.** 1347 Movements/Mile/LB BW

**Q.** What about the “Activity short runs, APM/lb Mean” value ([1]; Week 7, males) of the same compound?
**A.** 1407 Movements/Mile/LB BW

**Q.** And the “Activity short runs, APM/lb Mean” value ([1]; Week 8, both sexes)?
**A.** 1249 Movements/Mile/LB BW

**Q.** And the “Activity short runs, APM/lb Mean” value ([1]; Week 8, females)?
**A.** 1330 Movements/Mile/LB BW

**Q.** And the “Activity short runs, APM/lb Mean” value ([1]; Week 8, males)?
**A.** 1183 Movements/Mile/LB BW

**Q.** What about the “Activity short runs, APM/lb Mean” value ([1]; Week 9, both sexes) of the same compound?
**A.** 1234 Movements/Mile/LB BW

**Q.** And the “Activity short runs, APM/lb Mean” value ([1]; Week 9, females)?
**A.** 1388 Movements/Mile/LB BW

**Q.** What about the “Activity short runs, APM/lb Mean” value ([1]; Week 9, males) of the same compound?
**A.** 1108 Movements/Mile/LB BW

**Q.** And the “Activity short runs, APM/lb Mean” value ([1]; Week 10, both sexes)?
**A.** 1114 Movements/Mile/LB BW

**Q.** What about the “Activity short runs, APM/lb Mean” value ([1]; Week 10, females) of the same compound?
**A.** 1222 Movements/Mile/LB BW

**Q.** And the “Activity short runs, APM/lb Mean” value ([1]; Week 10, males)?
**A.** 1026 Movements/Mile/LB BW

**Q.** What about the “Activity short runs, APM/lb Mean” value ([1]; Week 11, both sexes) of the same compound?
**A.** 1111 Movements/Mile/LB BW

**Q.** What about the “Activity short runs, APM/lb Mean” value ([1]; Week 11, females) of the same compound?
**A.** 1128 Movements/Mile/LB BW

**Q.** And the “Activity short runs, APM/lb Mean” value ([1]; Week 11, males)?
**A.** 1098 Movements/Mile/LB BW

**Q.** And the “Activity short runs, APM/lb Mean” value ([1]; Week 12, both sexes)?
**A.** 2500 Movements/Mile/LB BW

**Q.** And the “Activity short runs, APM/lb Mean” value ([1]; Week 12, females)?
**A.** 2804 Movements/Mile/LB BW

**Q.** And the “Activity short runs, APM/lb Mean” value ([1]; Week 12, males)?
**A.** 2251 Movements/Mile/LB BW

**Q.** What about the “Activity short runs, APM/lb Mean” value ([1]; Week 13, both sexes) of the same compound?
**A.** 1741 Movements/Mile/LB BW

**Q.** What about the “Activity short runs, APM/lb Mean” value ([1]; Week 13, females) of the same compound?
**A.** 1661 Movements/Mile/LB BW

**Q.** And the “Activity short runs, APM/lb Mean” value ([1]; Week 13, males)?
**A.** 1806 Movements/Mile/LB BW

**Q.** What about the “Activity short runs, Least Sq Mean” value ([1]; both sexes) of the same compound?
**A.** 1451 Movements/Mile/LB BW and 1451.0357 Movements/Mile/LB BW

**Q.** And the “Activity short runs, Least Sq Mean” value ([1]; females)?
**A.** 1522 Movements/Mile/LB BW and 1528.6226 Movements/Mile/LB BW

**Q.** What about the “Activity short runs, Least Sq Mean” value ([1]; males) of the same compound?
**A.** 1373.4487 Movements/Mile/LB BW

**Q.** What about the “Lameness or soreness after long runs (score 1-5)” value [2] of the same compound?
**A.** no noticeable effects
